Source: patent US7262289B2, “KCNQ potassium channels and methods of modulating same” (Bristol-Myers Squibb Co., priority 1997, dated 2007)
Read-outs that look alike come from different tables or passages of the source.

Assays:
human KCNQ2/KvLR1 = target: T1, human KCNQ2/KvLR1 (Homo sapiens, UniProt O43526, DEL509-509/N780T); format: cell-based
T1 construct: The full-length human KCNQ2 and KCNQ3 cDNAs were subcloned into a Xenopus expression vector and cRNA was generated by in vitro transcription; expressed in transfected cells; host or cells: Xenopus laevis oocytes (cRNA injection)
Description: Superimposed currents were recorded during 1 second steps to +30 mV, from −80 mV, during the same experiment. Compounds were applied via bath perfusion in order from top to bottom. The bath was perfused with control solution for 5 minutes, or until effects reversed completely, between compounds.
Inhibitors of various potassium channels present in brain and other tissues were used to investigate the pharmacology of KCNQ2/KvLR1.
(§1) Stage V and VI Xenopus laevis oocytes were defolliculated with collagenase treatment and injected with cRNAs, as described in Yang et al., supra. Currents were recorded at room temperature using the two-microelectrode voltage clamp (Dagan TEV-200) technique between 3-5 days after injection of KCNQ2 (15 ng), KCNQ3 (15 ng), or KCNE1 (2 ng) cRNA alone or in combination. Microelectrodes (0.8 to 1.5 MΩ) were filled with 3 M KCl . Bath solution contained (in mM): 96 NaCl, 2 KCl , 0.4-1.8 CaCl2, 1-2 MgCl2 and 5 HEPES (pH 7.5). KCl was varied in some experiments by equimolar substitution with NaCl.
(§2) Axoclamp (Axon Instruments) was used for generating voltage clamp commands and acquiring data and Axograph 3.0 (Axon Instruments) was used for data analysis. All data was sampled at rates at least two times the low pass filter rate. Experiments were performed at 22-25° C.

KCNQ3 = target: T2, KCNQ3 (Homo sapiens, UniProt O43525); format: cell-based
T2 construct: The full-length human KCNQ2 and KCNQ3 cDNAs were subcloned into a Xenopus expression vector and cRNA was generated by in vitro transcription; expressed in transfected cells; host or cells: Xenopus laevis oocytes (cRNA injection)
Description: FIGS. 18A-18D show the functional characterization of KCNQ3 currents. […] Currents were recorded using the protocol in FIG. 18A. […] Each value is the mean±SEM from 6 oocytes. […] Superimposed currents were recorded during 1 sec steps to +20 mV, from −80 mV, during the same experiment. Compounds were applied via bath perfusion in order from top to bottom. The bath was perfused with control solution for 5 min, or until effects reversed completely, between compounds.
as §1, §2

KCNQ2+KCNQ3 = target: T3, KCNQ2+KCNQ3 (Homo sapiens, UniProt O43525+O43526, DEL509-509/N780T); format: cell-based
T3 construct: The full-length cDNAs were subcloned into a Xenopus expression vector, derived from pSP64T plasmid; expressed in transfected cells; host or cells: Xenopus laevis oocytes (co-injection of cRNAs)
Description: FIGS. 19A-19F show co-expression of KCNQ2 and KCNQ3. […] Currents were recorded using the protocol in FIGS. 19A-19C. […] The dashed line has a slope predicted by the Nernst equation for a perfectly selective K^+ channel. Each value is the mean±SEM from 6 oocytes. […] Superimposed currents were recorded during 1 sec steps to +20 mV, from […], during the same experiment. Compounds were applied via bath perfusion in order from top to bottom.
as §1, §2

KCNQ1/KvLQT1 [1] = target: T4, KCNQ1/KvLQT1 (Homo sapiens, UniProt P51787); settings: from Yang et al. (1997); cited from earlier work
murine KCNQ2/KvLR1 = target: T5, murine KCNQ2/KvLR1 (Mus musculus, UniProt Q9Z351, DEL481-481/H600Q/P326Q); assay: murine KCNQ2/KvLR1-mediated whole-cell currents in Xenopus oocytes, 2-electrode voltage clamp; format: cell-based; settings: for effect on murine KCNQ2-mediated currents: concentration not given
T5 construct: Also disclosed is a full-length murine cDNA clone of KCNQ2 (murine KvLR1); expressed in transfected cells; host or cells: Xenopus oocytes (cRNA injection)
Description: FIGS. 15A and 15B show electrophysiology characterization of mouse KCNQ2/KvLR1-mediated whole-cell currents expressed in Xenopus oocytes.
To test for functional expression, cRNA was prepared from the murine KCNQ2/KvLR1 gene and injected into Xenopus oocytes. In a two-electrode voltage clamp, a family of outward currents were generated in murine KCNQ2/KvLR1 cRNA-injected oocytes (n>20). After a minimum of 48 hours, currents qualitatively and quantitatively different than native currents generated with identical protocols in water injected or uninjected control cells (representing Ca^2+-activated chloride currents and other native currents) (FIG. 15). […] Similar currents were obtained from CHO cells stably expressing murine KCNQ2 and recorded using patch-clamp techniques. Single channel conductances were estimated to be 24-30 pS in symmetrical 140 mM potassium. (FIG. 22).
The murine KCNQ2/KvLR1 cDNAs were linearized with the restriction enzyme NotI and in vitro transcribed using the mMessage mMachine T7 RNA polymerase kit according to the manufacturer's instructions (Ambion, Austin, Tex.). The cRNAs were solubilized in RNase-free water, and stored at −70° C. at a concentration of 1.0 μg/μl. Frog oocytes were prepared and injected using standard techniques (Colman, 1984). In murine KvLR1 expression experiments, each oocyte was injected with approximately 35-40 nl of the cRNA. Following injection, oocytes were maintained at 17° C., in ND96 medium consisting of (in mM): NaCl, 90; KCl, 1.0; CaCl2, 1.0; MgCl2, 1.0; HEPES, 5.0; pH 7.5. Horse serum and penicillin/streptomycin, both 5% of final volume, were added as supplements to the incubation medium. Electrophysiological recording commenced 2-6 days following cRNA injection. Prior to the start of an experiment oocytes were placed in a recording chamber and incubated in Modified Barth's Solution (MBS) consisting of (in mM): NaCl, 88; NaHCO3, 2.4; KCl, 1.0; HEPES, 10; MgSO4, 0.82; Ca(NO3)2, 0.33; CaCl2, 0.41; pH 7.5. Oocytes were impaled with electrodes (1-2 MΩ) and standard 2-electrode voltage clamp techniques were employed to record whole-cell membrane currents (Stuhmer, 1992; TEC 200, Dagan Instruments). Voltage-clamp protocols typically consisted of a series of voltage steps 100-500 ms duration, in +10 mV steps from a holding potential of −60 mV to −90 mV to a maximal potential of +40 mV to +50 mV; records were digitized at 5 kHz and stored on a computer using pClamp 6.0 software (Axon Instruments), and analyzed using ClampFit or AxoGraph software (Axon Instruments).

minK+human KCNQ2/KvLR1 = minK+human KCNQ2/KvLR1 (Homo sapiens, UniProt O43526); settings: 1 mM, steps to +40 mV from −80 mV
Chain of minK+human KCNQ2/KvLR1 (O43526 whole entry): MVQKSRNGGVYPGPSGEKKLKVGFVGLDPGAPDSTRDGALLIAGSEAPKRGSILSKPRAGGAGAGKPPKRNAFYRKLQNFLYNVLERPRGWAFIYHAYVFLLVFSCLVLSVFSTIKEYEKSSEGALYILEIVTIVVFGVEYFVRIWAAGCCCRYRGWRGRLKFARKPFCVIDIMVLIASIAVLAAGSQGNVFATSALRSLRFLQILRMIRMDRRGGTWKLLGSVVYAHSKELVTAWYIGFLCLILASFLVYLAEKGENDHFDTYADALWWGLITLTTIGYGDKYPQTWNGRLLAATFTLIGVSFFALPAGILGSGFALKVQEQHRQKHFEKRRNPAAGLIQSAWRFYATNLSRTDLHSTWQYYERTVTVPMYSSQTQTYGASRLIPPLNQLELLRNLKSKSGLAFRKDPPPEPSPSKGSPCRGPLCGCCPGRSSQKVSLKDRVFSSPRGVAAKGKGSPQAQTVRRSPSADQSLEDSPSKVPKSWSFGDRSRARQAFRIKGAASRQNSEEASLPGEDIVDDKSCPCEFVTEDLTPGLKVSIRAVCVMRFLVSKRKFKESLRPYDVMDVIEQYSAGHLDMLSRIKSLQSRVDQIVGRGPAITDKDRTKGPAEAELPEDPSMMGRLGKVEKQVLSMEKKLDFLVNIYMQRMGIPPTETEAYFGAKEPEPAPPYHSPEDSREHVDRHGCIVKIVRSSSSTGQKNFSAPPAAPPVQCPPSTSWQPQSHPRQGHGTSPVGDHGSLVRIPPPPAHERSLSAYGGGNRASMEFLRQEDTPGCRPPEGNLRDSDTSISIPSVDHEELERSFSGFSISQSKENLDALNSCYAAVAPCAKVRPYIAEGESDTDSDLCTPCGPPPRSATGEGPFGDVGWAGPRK
Description: as §1

KCNQ1/KvLQT1 [2] = target: T4, KCNQ1/KvLQT1; assay: KCNQ1/KvLQT1 currents (comparison); format: cell-based; settings: no citation, concentration not given
[3] = 10 μM, steps to +30 mV from −80 mV

Nc1ccncc1 [4-AP, 4-aminopyridine]
effect on KCNQ2/KvLR1 current (human KCNQ2/KvLR1; 0.2 mM): Neither E-4031 nor 4-AP produced significant effects | effect on KCNQ3 current (KCNQ3; 2 mM): no effect | sensitivity of KCNQ2+KCNQ3 current to inhibition (KCNQ2+KCNQ3; 2 mM): not | inhibition of KCNQ1/KvLQT1 currents (KCNQ1/KvLQT1 [1]): do not inhibit

CC[N+](CC)(CC)CC [TEA, tetraethylammonium]
effect on KCNQ2 current (human KCNQ2/KvLR1): strongly inhibited | effect on KCNQ3 current (KCNQ3): little inhibition | sensitivity of KCNQ2+KCNQ3 current to inhibition (KCNQ2+KCNQ3): weakly sensitive to inhibition | block of murine KCNQ2/KvLR1-mediated currents (murine KCNQ2/KvLR1): blocked | effect on minK+human KCNQ2/KvLR1 currents (minK+human KCNQ2/KvLR1): partially inhibited

Charybdotoxin
effect on KCNQ2/KvLR1 current (human KCNQ2/KvLR1; 0.1 mM (concentration tested)): did not inhibit | effect on KCNQ3 current (KCNQ3; 100 nM): no effect | sensitivity of KCNQ2+KCNQ3 current to inhibition (KCNQ2+KCNQ3; 100 nM): not | effect on murine KCNQ2-mediated currents (murine KCNQ2/KvLR1): no significant effect | effect on KCNQ1/KvLQT1 (KCNQ1/KvLQT1 [2]): no effect

iberiotoxin: specific K+ channel blocking toxin (QFTDVDCSVSKECWSVCKDLFGVDRGKCMGKKCRCYQ)
effect on murine KCNQ2-mediated currents (murine KCNQ2/KvLR1): no significant effect

CCCCCCC[N+](CC)(CC)CCCCc1ccc(Cl)cc1 [clofilium]
effect on KCNQ2/KvLR1 current (human KCNQ2/KvLR1; [3]): little effect | reduction of KCNQ3 current from control (KCNQ3; 10 μM): 30% | sensitivity of KCNQ2+KCNQ3 current to inhibition (KCNQ2+KCNQ3; 10 μM): weakly sensitive to inhibition | block of murine KCNQ2-mediated currents (murine KCNQ2/KvLR1; 20 μM, depolarized from −80 to +40): partially block | inhibition of KCNQ1/KvLQT1 currents (KCNQ1/KvLQT1 [1]): strong inhibitor

α-dendrotoxin (QPRRKLCILHRNPGRCYDKIPAFYYNQKKKQCERFDWSGCGGNSNRFKTIEECRRTCIG)
effect on murine KCNQ2-mediated currents (murine KCNQ2/KvLR1): no significant effect

Cc1cccc(CCN2CCC(C(=O)c3ccc(NS(C)(=O)=O)cc3)CC2)n1 [E-4031]
effect on KCNQ2/KvLR1 current (human KCNQ2/KvLR1; [3]): Neither E-4031 nor 4-AP produced significant effects | effect on KCNQ3 current (KCNQ3; 10 μM): no effect | sensitivity of KCNQ2+KCNQ3 current to inhibition (KCNQ2+KCNQ3; 10 μM): did not inhibit | inhibition of KCNQ1/KvLQT1 currents (KCNQ1/KvLQT1 [1]): do not inhibit
